# Laboratory results: patent publication US20180312534A1, “FLUORESCENT ANTICANCER PLATINUM DRUGS” (INVICTUS ONCOLOGY PVT. LTD., priority 2015, published 2018)
# Tested on: A549
# Assay: Cellular uptake of fluorescent compounds (fluorescence microscopy)
# Format: cell-based
# Conditions: A549, post 5-hours incubation
# Description: The intracellular localization of molecules was visualized by fluorescence microscopy. Cells were seeded on cover slips to a confluency of 40% and grown for 24 hours in a humidified chamber. Cells were treated with fluorescent compounds and incubated for 2, 5 and 24 hours. Following incubation, cells were washed with PBS, fixed in 4% paraformaldehyde and observed under epifluorescence microscope. Images were recorded in phase contrast and fluorescent channels. Cells treated with vehicle and/or ligand were considered as control and microscopically evaluated.
structure (smiles),measurement,value
NCC(N)C(=O)OCCNc1ccc2cccc3c2c1C(=O)C=C3 (stereo not shown) [Im-02],intracellular localization of fluorescence,punctate dots in the cytoplasm or along cell margins
